Measured values from publication PMC10053003, “Study on Pharmacokinetics and Metabolic Profiles of Novel Potential PLK-1 Inhibitors by UHPLC-MS/MS Combined with UHPLC-Q-Orbitrap/HRMS” (Molecules, 2023).
Where two headings read alike, the source gives them in different places. One block for each compound: values may come before it.

Legend:
PLK1 kinase = biological target: T1, PLK1 kinase (Homo sapiens, UniProt P53350); assay: PLK1 kinase inhibition activity; type: biochemical
T1 construct: purchased CarnaBio 05–157
T1 sequence (P53350 whole entry): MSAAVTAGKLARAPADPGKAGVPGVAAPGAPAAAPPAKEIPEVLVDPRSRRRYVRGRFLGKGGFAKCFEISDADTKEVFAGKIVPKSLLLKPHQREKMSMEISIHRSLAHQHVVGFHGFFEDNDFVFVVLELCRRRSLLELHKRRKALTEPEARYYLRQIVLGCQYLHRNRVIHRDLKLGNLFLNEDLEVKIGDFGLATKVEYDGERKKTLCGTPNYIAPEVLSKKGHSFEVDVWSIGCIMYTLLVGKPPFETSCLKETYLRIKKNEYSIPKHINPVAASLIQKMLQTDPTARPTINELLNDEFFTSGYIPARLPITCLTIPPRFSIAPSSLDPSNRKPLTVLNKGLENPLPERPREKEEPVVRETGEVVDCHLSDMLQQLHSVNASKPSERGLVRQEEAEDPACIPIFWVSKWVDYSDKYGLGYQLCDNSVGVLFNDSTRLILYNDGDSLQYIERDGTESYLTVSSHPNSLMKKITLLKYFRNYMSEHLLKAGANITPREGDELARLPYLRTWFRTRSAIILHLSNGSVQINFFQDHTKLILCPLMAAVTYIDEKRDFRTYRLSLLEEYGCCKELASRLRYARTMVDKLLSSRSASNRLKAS
Method: The compounds were diluted at a 1:3 ratio on a 384-well plate with the highest concentration of 1 μM, and a total of 10 concentration points were tested. The mixture of PLK1 kinase and peptide substrate (5 μL) was added to each well. […] The results were tested by EnVision and analyzed using XLFIT5 software.

HCT-116 cells = assay: Cell proliferation inhibition, HCT-116 (ATPlite); type: cell-based; conditions: Homo sapiens, 72 h incubation, read-out: HCT-116 IC50 (cell viability)
Method: (§1) HCT-116 or NCI-H2030 cells were seeded in 96-well plates at a density of 720/well and cultured overnight in a 5% CO2 incubator at 37 ± 1 °C. The compounds were diluted and added at a ratio of 1:3. After incubation for 72 h, ATPlite 1step Luminescence was added and incubated in the dark for 3 min, then was vortexed at 500 rpm for 2 min, and the luminous intensity was detected by the microplate reader and the cell inhibition was calculated as follows:Inhibition (%) = 100 − (Lum compound − Lum medium)/(Lum control − Lum medium) × 100%

NCI-H2030 cells = assay: Cell proliferation inhibition, NCI-H2030 (ATPlite); type: cell-based; conditions: Homo sapiens, 72 h incubation, read-out: NCI-H2030 IC50 (cell viability)
Method: as §1

[1] = Stability of 7a in rat plasma (QC samples, UHPLC-MS/MS); type: in vitro ADME
Method: QC samples were stored under different conditions, such as room temperature for 4 h, frozen-thawed for 3 cycles, frozen at −20 °C for 7 days, or stored in an auto-sampler for 24 h. The sample concentrations were calculated by the following calibration curve. The RE (%) and RSD (%) should be less than ±15%.

[2] = Pharmacokinetic study in rats after oral administration; type: in vivo, Sprague-Dawley rats; conditions: for Cmax / Tmax / half-life / bioavailability / AUC(0-t): Sprague-Dawley, rat, plasma; for AUC(0-t): read-out: AUC0–24h
Method: Sprague-Dawley rats (8 weeks old, 180–220 g) were provided by Pengyue Laboratory Animal Technology Co., Ltd (Jinan, Shandong, China). All rats were fed adaptively for 1 week (20 °C–24 °C, 50%–70% relative humidity, 12/12 h light/dark cycle). A standard diet and boiled water were provided. The rats fasted for over 12h with free access to water before the study. Furthermore, 7a was dissolved DMSO (5%) and then diluted with saline. The rats were given 7a by gavage at 5 mg/kg and 30 mg/kg. In addition, 200 μL of blood was collected into a 1.5 mL tube added with heparin at 5 min, 15 min, 30 min, 1 h, 2 h, 4 h, 6 h, 8 h, 10 h, and 24 h after administration. Plasma was acquired by centrifugation (8000 rpm, 5 min) and all samples were immediately stored at −20 °C immediately. The guidelines of the Animal Ethics Committee of Luye Pharma Group Ltd. were strictly enforced during the animal experiments to ensure animal welfare.
(§2) The main pharmacokinetic parameters were calculated using Phoenix WinNonlin 7.0 via a non-compartmental model (Pharsight, Mountain View, CA). […] Data were presented as mean ± SD.

[3] = Pharmacokinetics in rats after intravenous administration; type: in vivo; conditions: Sprague-Dawley, rat, plasma, i.v. 1 mg/kg
Method: The pharmacokinetic characteristics of 7a were then evaluated successfully with the validated UHPLC-MS/MS method. […] The AUC0–24h was about 517 and 3192 h × nmol/L at the doses of 5 and 30 mg/kg, respectively. The tmax was approximately 2 h, and t1/2 was 5 h. In the dose range of 5–30 mg/kg, the pharmacokinetics of 7a were almost linear. The mean plasma concentration-time curve of 7a after a single intravenous administration (1 mg/kg) and the major pharmacokinetic parameters can be found in Figure S14 and Table S1.
as §2
Figure S12. 19F NMR (400 MHz, DMSO) of compound 7a: δ -56.89 ppm.
Figure S13. Mass spectrum of compound 7a (m/z 500.2).
Figure S14. Mean concentration-time curves of compound 7a after intravenous administration in rats (1 mg/kg).
Data were presented as mean ± SD, n=3.
Table S1. Main pharmacokinetics parameters of compound 7a after intravenous administration (mean ± SD, n=3).
T (h) C0 AUC0-t V (L/kg) Cl(L/h/kg) […]

[4] = type: in vitro ADME; conditions: incubation of 7a in rat liver microsomes with NADPH
Method: Liver microsomes were used to investigate the metabolism clearance of 7a. In addition, 5 µL of rat liver microsome (20 mg/mL), 2 µL of 7a or onvansertib (100 µM), and 173 µL of PBS buffer (0.1 M, pH 7.4) were added to 1.5 mL Eppendorf tubes. After pre-incubation for 10 min at 37 °C, the reaction was initiated by adding an NADPH-generating system (20 µL) into the microsomal suspension. A system without NADPH was set as a negative control. After incubations for 10 min, 30 min, or 60 min, 400 µL of ice acetonitrile was added to quench the reaction. The supernatants were injected into Q Exactive ™ combined quadrupole Orbitrap mass spectrometer (Thermo Scientific, Waltham, MA, USA) for metabolite profiling and identification. The concentration of the compound to be measured at 0 min was defined as 100%, and the concentration at other times was converted into a residual percentage.

[5] = type: in vitro ADME, human; conditions: for HLM (%) relative abundance (area ratio): incubation of 7a in human liver microsomes with NADPH
[6] = autosampler 4 °C for 24 h, nominal 3 nM
[7] = autosampler 4 °C for 24 h, nominal 300 nM
[8] = autosampler 4 °C for 24 h, nominal 750 nM
[9] = rat plasma, freeze −20 °C for 7 days, nominal 3 nM
[10] = rat plasma, freeze −20 °C for 7 days, nominal 300 nM
[11] = rat plasma, freeze −20 °C for 7 days, nominal 750 nM
[12] = rat plasma, freeze-thaw for 3 cycles, nominal 3 nM
[13] = rat plasma, freeze-thaw for 3 cycles, nominal 300 nM
[14] = rat plasma, freeze-thaw for 3 cycles, nominal 750 nM
[15] = rat plasma, room temperature for 4 h, nominal 3 nM
[16] = rat plasma, room temperature for 4 h, nominal 300 nM
[17] = rat plasma, room temperature for 4 h, nominal 750 nM
[18] = both sexes, oral 5 mg/kg, mean of male and female rats
[19] = both sexes, oral 30 mg/kg, mean of male and female rats
[20] = both sexes, oral, rats, doses 5–30 mg/kg, overall statement

- IC50 (PLK1 kinase): 0.89 nM
- IC50 (HCT-116 cells): 30.6 nM
- IC50 (NCI-H2030 cells): 38.5 nM
- Measured Concentrations [1, 6]: 3.05 ± 0.10 nM
- RE (stability) [1, 6]: 1.78%
- Measured Concentrations [1, 7]: 280 ± 11.9 nM
- RE (stability) [1, 7]: −6.67%
- Measured Concentrations [1, 8]: 701 ± 46.5 nM
- RE (stability) [1, 8]: −6.58%
- Measured Concentrations [1, 9]: 2.55 ± 0.13 nM
- RE (stability) [1, 9]: −14.9%
- Measured Concentrations [1, 10]: 272 ± 9.67 nM
- RE (stability) [1, 10]: −9.33%
- Measured Concentrations [1, 11]: 685 ± 34.7 nM
- RE (stability) [1, 11]: −8.71%
- Measured Concentrations [1, 12]: 2.73 ± 0.21 nM
- RE (stability) [1, 12]: −9.17%
- Measured Concentrations [1, 13]: 260 ± 10.8 nM
- RE (stability) [1, 13]: −13.4%
- Measured Concentrations [1, 14]: 649 ± 24.2 nM
- RE (stability) [1, 14]: −13.5%
- Measured Concentrations [1, 15]: 2.59 ± 0.17 nM
- RE (stability) [1, 15]: −13.7%
- Measured Concentrations [1, 16]: 261 ± 4.94 nM
- RE (stability) [1, 16]: −13%
- Measured Concentrations [1, 17]: 649 ± 17.9 nM
- RE (stability) [1, 17]: −13.4%
- Cmax ([2]; oral 5 mg/kg, female rats): 102 ± 25 nM
- Tmax ([2]; oral 5 mg/kg, female rats): 0.8 ± 1 h
- half-life ([2]; oral 5 mg/kg, female rats): 4.6 ± 1.4 h
- bioavailability ([2]; oral 5 mg/kg, female rats, read-out: F): 19.9%
- Cmax ([2]; oral 5 mg/kg, male rats): 87 ± 45 nM
- Tmax ([2]; oral 5 mg/kg, male rats): 3 ± 2.6 h
- half-life ([2]; oral 5 mg/kg, male rats): 4.4 ± 0.9 h
- bioavailability ([2]; oral 5 mg/kg, male rats, read-out: F): 23.9%
- Cmax ([2]; oral 30 mg/kg, female rats): 428 ± 90 nM
- Tmax ([2]; oral 30 mg/kg, female rats): 2.3 ± 1.5 h
- half-life ([2]; oral 30 mg/kg, female rats): 6.1 ± 0.9 h
- bioavailability ([2]; oral 30 mg/kg, female rats, read-out: F): 22.3%
- Cmax ([2]; oral 30 mg/kg, male rats): 435 ± 81 nM
- Tmax ([2]; oral 30 mg/kg, male rats): 2 ± 1.9 h
- half-life ([2]; oral 30 mg/kg, male rats): 3.7 ± 1.3 h
- bioavailability ([2]; oral 30 mg/kg, male rats, read-out: F): 22.7%
- AUC(0-t) ([2]; both sexes, po, 5 mg/kg, oral 5 mg/kg, mean of male and female rats): ~0.517 µM·h
- AUC(0-t) ([2]; both sexes, po, 30 mg/kg, oral 30 mg/kg, mean of male and female rats): ~3.19 µM·h
- bioavailability ([2]; both sexes, po, rats, overall statement, read-out: oral bioavailability (F)): ~22%
- Cmax [2, 18]: 95 ± 33 nM
- Tmax [2, 18]: 1.9 ± 2.1 h
- half-life [2, 18]: 4.5 ± 1.1 h
- bioavailability ([2]; both sexes, oral 5 mg/kg, mean of male and female rats, read-out: F): 21.9%
- Cmax [2, 19]: 432 ± 77 nM
- Tmax [2, 19]: 2.2 ± 1.6 h
- half-life [2, 19]: 5.1 ± 1.6 h
- bioavailability ([2]; both sexes, oral 30 mg/kg, mean of male and female rats, read-out: F): 22.5%
- Tmax [2, 20]: ~2 h
- half-life [2, 20]: 5 h
- AUC(0-t) ([2]; female, po, 5 mg/kg, oral 5 mg/kg, female rats): 0.469 ± 0.064 µM·h
- AUC(0-t) ([2]; female, po, 30 mg/kg, oral 30 mg/kg, female rats): 3.16 ± 1.02 µM·h
- AUC(0-t) ([2]; male, po, 5 mg/kg, oral 5 mg/kg, male rats): 0.565 ± 0.132 µM·h
- AUC(0-t) ([2]; male, po, 30 mg/kg, oral 30 mg/kg, male rats): 3.22 ± 1.04 µM·h
- AUC0–24h ([2]; oral 30 mg/kg, mean of male and female rats, 30 mg/kg): 3.192 ± 0.922 µM·h
- AUC(0-t) [3]: 0.472 ± 0.032 µM·h
- C0 [3]: 481 ± 42 nM
- clearance [3]: 70 mL/min/kg
- half-life [3]: 2.4 ± 0.6 h
- Vd ([3]; read-out: Vss): 8.5 ± 1.3 L/kg
- RLM (%) relative abundance (area ratio) [4]: 5.34%
- stability of the parent in HLM ([5]; human liver microsomes): stable
- HLM (%) relative abundance (area ratio) [5]: 43.73%
SMILES: CN1CCN(c2ccc(OC(F)(F)F)c(Nc3nccc(-c4cc5c(=O)[nH]ccc5n4C)n3)c2)CC1 [compound 7a, 1-methyl-2-(2-((5-(4-methylpiperazin-1-yl)-2-(trifluoromethoxy)phenyl)amino)pyrimidin-4-yl)-1,5-dihydro-4H-pyrrolo[3,2-c] pyridin-4-one]
- PLK-1 activity and cytotoxicity, times higher than compound 25 (PLK1 kinase; relative to compound 25): more than 4 times

- RLM (%) relative abundance (area ratio) [4]: 6.53%
- HLM (%) relative abundance (area ratio) [5]: 34.76%
SMILES: Cn1c(-c2ccnc(Nc3cc(N4CCNCC4)ccc3OC(F)(F)F)n2)cc2c(=O)[nH]ccc21 [M2]

- IC50 (PLK1 kinase; read-out: PLK1 inhibition IC50): 4.07 nM
- IC50 (HCT-116 cells): 62.8 nM
- IC50 (NCI-H2030 cells): 74.7 nM
SMILES: CN1CCN(c2ccc(OC(F)(F)F)c(Nc3nccc(-c4cc5c(n4C)CCNC5=O)n3)c2)CC1 [compound 25, reference compound]
